According to PubChem BioAssay AID2060336 (Molecular Pharmacology Branch, DTP, NCI, 2025):

System: 958767-090-R-J1-PDC spheroid growth
Experiment: Anticancer human tumor 958767-090-R-J1-PDC patient-derived head and neck squamous carcinoma cell line growth inhibition [IpAb]
Settings: spheroids with HUVEC and MSC; for IC50: curve of first compound; for viability, T/C: stronger effect = lower value
In short: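 Combinations with ipatasertib or abemaciclib were tested on tumour spheroids holding HUVEC (25%) and MSC (15%) alongside 60% malignant cells. Top concentration was at or near clinical Cmax (10 microM if undefined), descending in half-log steps.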

[1] = second compound 0.1 µM, first compound 0.0316 µM
[2] = second compound 0.1 µM, first compound 0.1 µM
[3] = second compound 0.316 µM, first compound 0.0316 µM
[4] = second compound 0.316 µM, first compound 0.1 µM
[5] = second compound 1 µM, first compound 0.0316 µM
[6] = second compound 1 µM, first compound 0.1 µM
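Note: spheroids exposed to agents for 7 days.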
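Throughout, for viability, T/C: 100% = DMSO vehicle control wells.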

CC(C)n1nc(-c2ccc3oc(N)nc3c2)c2c(N)ncnc21 + CCN1CCN(Cc2ccc(Nc3ncc(F)c(-c4cc(F)c5nc(C)n(C(C)C)c5c4)n3)nc2)CC1
IC50 (second compound 0.01 µM): 15.7 nM
IC50 (second compound 0.0316 µM): 13.5 nM
IC50 (second compound 0.1 µM): 22.8 nM
IC50 (second compound 0.316 µM): 24.8 nM
IC50 (second compound 1 µM): > 100 nM
viability, T/C (second compound 0.01 µM, first compound 0.000316 µM): 91.4%
viability, T/C (second compound 0.01 µM, first compound 0.001 µM): 92.4%
viability, T/C (second compound 0.01 µM, first compound 0.00316 µM): 84.2%
viability, T/C (second compound 0.01 µM, first compound 0.01 µM): 57.2%
viability, T/C (second compound 0.01 µM, first compound 0.0316 µM): 39.2%
viability, T/C (second compound 0.01 µM, first compound 0.1 µM): 33.8%
viability, T/C (second compound 0.0316 µM, first compound 0.000316 µM): 79.5%
viability, T/C (second compound 0.0316 µM, first compound 0.001 µM): 80.5%
viability, T/C (second compound 0.0316 µM, first compound 0.00316 µM): 82.6%
viability, T/C (second compound 0.0316 µM, first compound 0.01 µM): 54.1%
viability, T/C (second compound 0.0316 µM, first compound 0.0316 µM): 40.5%
viability, T/C (second compound 0.0316 µM, first compound 0.1 µM): 36.7%
viability, T/C (second compound 0.1 µM, first compound 0.000316 µM): 68.7%
viability, T/C (second compound 0.1 µM, first compound 0.001 µM): 73.1%
viability, T/C (second compound 0.1 µM, first compound 0.00316 µM): 70.3%
viability, T/C (second compound 0.1 µM, first compound 0.01 µM): 61.6%
viability, T/C [1]: 45.5%
viability, T/C [2]: 35.4%
viability, T/C (second compound 0.316 µM, first compound 0.000316 µM): 70.6%
viability, T/C (second compound 0.316 µM, first compound 0.001 µM): 56.9%
viability, T/C (second compound 0.316 µM, first compound 0.00316 µM): 66.1%
viability, T/C (second compound 0.316 µM, first compound 0.01 µM): 54.1%
viability, T/C [3]: 48.8%
viability, T/C [4]: 40%
viability, T/C (second compound 1 µM, first compound 0.000316 µM): 78.3%
viability, T/C (second compound 1 µM, first compound 0.001 µM): 75.9%
viability, T/C (second compound 1 µM, first compound 0.00316 µM): 64.8%
viability, T/C (second compound 1 µM, first compound 0.01 µM): 68.4%
viability, T/C [5]: 65.5%
viability, T/C [6]: 50.7%

Cc1nc(NC(=O)N2CCCC2C(N)=O)sc1-c1ccnc(C(C)(C)C(F)(F)F)c1 (stereo not given) + CC(C)NCC(C(=O)N1CCN(c2ncnc3c2C(C)CC3O)CC1)c1ccc(Cl)cc1
IC50 (second compound 0.1 µM): 136 nM
IC50 (second compound 0.316 µM): 63.5 nM
IC50 (second compound 1 µM): < 31.6 nM
IC50 (second compound 3.16 µM): < 31.6 nM
IC50 (second compound 10 µM): < 31.6 nM
viability, T/C [1]: 72.7%
viability, T/C [2]: 49.6%
viability, T/C (second compound 0.1 µM, first compound 0.316 µM): 38.1%
viability, T/C (second compound 0.1 µM, first compound 1 µM): 34.2%
viability, T/C (second compound 0.1 µM, first compound 3.16 µM): 20.7%
viability, T/C (second compound 0.1 µM, first compound 10 µM): 12.2%
viability, T/C [3]: 54.4%
viability, T/C [4]: 49.1%
viability, T/C (second compound 0.316 µM, first compound 0.316 µM): 32.3%
viability, T/C (second compound 0.316 µM, first compound 1 µM): 26.7%
viability, T/C (second compound 0.316 µM, first compound 3.16 µM): 16.2%
viability, T/C (second compound 0.316 µM, first compound 10 µM): 11.1%
viability, T/C [5]: 46.6%
viability, T/C [6]: 32.7%
viability, T/C (second compound 1 µM, first compound 0.316 µM): 30.9%
viability, T/C (second compound 1 µM, first compound 1 µM): 20.9%
viability, T/C (second compound 1 µM, first compound 3.16 µM): 15.6%
viability, T/C (second compound 1 µM, first compound 10 µM): 9.52%
viability, T/C (second compound 3.16 µM, first compound 0.0316 µM): 38.4%
viability, T/C (second compound 3.16 µM, first compound 0.1 µM): 28.4%
viability, T/C (second compound 3.16 µM, first compound 0.316 µM): 24.2%
viability, T/C (second compound 3.16 µM, first compound 1 µM): 18.3%
viability, T/C (second compound 3.16 µM, first compound 3.16 µM): 14.4%
viability, T/C (second compound 3.16 µM, first compound 10 µM): 7.8%
viability, T/C (second compound 10 µM, first compound 0.0316 µM): 31.6%
viability, T/C (second compound 10 µM, first compound 0.1 µM): 24.6%
viability, T/C (second compound 10 µM, first compound 0.316 µM): 16.5%
viability, T/C (second compound 10 µM, first compound 1 µM): 10.8%
viability, T/C (second compound 10 µM, first compound 3.16 µM): 9.96%
viability, T/C (second compound 10 µM, first compound 10 µM): 5.52%
